The numbers were not newly measured in patent US20220251295A1 (DYNAMIC BIOLOGICS INC., priority 2019, published 2022), which cites them from elsewhere.

For data set [1] the following is noted: levodopa alone.
The conditions of data set [2]: Phase III clinical trials.
The conditions of data set [3]: administered with levodopa.

As to `N[C@@H](Cc1ccc(O)c(O)c1)C(=O)O` [levodopa, (S)-2-amino-3-(3,4-dihydroxyphenyl)propanoic acid], the “Plasma half-life of levodopa” value in data set [1] was about 50 min. Consider `CCOC(=O)[C@@H](N)Cc1ccc(O)c(O)c1` [Etilevodopa], for which, in data set [2], the “efficacy compared with Levodopa” value is “less efficacious than Levodopa”.

Take `C[C@@](Cc1ccc(O)c(O)c1)(NN)C(=O)O` [carbidopa]: the “reduction of the amount of levodopa required to produce a given response” value in data set [3] is on record as 75%.
